{"source": "patent US7807176B2", "about": "“Polypeptide promoting vascular endothelial cell growth” (Genomidea, Inc., priority 2004, dated 2010)", "key": {"[1]": {"tested_on": "fibroblast growth factor (FGF-2) mRNA", "experiment": "Growth factor mRNA expression level: FGF-2", "format": "cell-based"}, "[2]": {"tested_on": "phosphatidyl inositol-3-kinase/Akt (PI3K/Akt)", "experiment": "Effect on PI3K/Akt activity", "details": "data are not shown"}, "C57BL/6 female mouse": {"tested_on": "C57BL/6 female mouse", "experiment": "Matrigel plug assay, in vivo angiogenesis", "details": "1 μg/ml in Matrigel, subcutaneous, after 7 days", "protocol": "In order to examine the in vivo angiogenesis-promoting activity of F2 peptide, a Matrigel plug assay (Rikitake, Y et al., Arterioscler Thromb Vasc Biol 20, 1006-1012 (2000)) was carried out. Together with any one of VEGF-A (50 ng/ml), F2 peptide (1 μg/ml) or the control peptide (1 μg/ml) or without adding any sample (negative control), Matrigel (0.5 ml, BD Biosciences, Franklin Lakes, N.J.) depleted of growth factor was mixed with 40 U/ml heparin (Aventis Pharma, Tokyo, JP). Then, each mixture was injected subcutaneously into a C57BL/6 female mouse obtained from Oriental Bioscience (Kyoto, JP). After 7 days, the mouse was sacrificed, and the plug was recovered and fixed in methanol. For immune staining, the section was incubated overnight at 4° C. with anti-CD31 (PECAM-1) monoclonal antibody (diluted at 1:100, BD Pharmigen, San Diego, Calif.) and then incubated for 2 hours with Alexa Flour 488 secondary antibody (1:1000, Molecular Probes, Eugene, Oreg.) before photographing. Every experimental protocol was approved by Animal Committee, Medical Department, Graduate School, Osaka University, JP."}, "[3]": {"tested_on": "insulin-like growth factor-1 (IGF-1) mRNA", "experiment": "Growth factor mRNA expression level: IGF-1", "format": "cell-based"}, "HEAC endothelial cells": {"tested_on": "HEAC endothelial cells", "experiment": "Endothelial cell migration, modified Boyden chamber", "format": "cell-based, human", "details": "for migration % Increase: 4 hours", "protocol": "A polyvinyl pyrrolidone (PVP)-free polycarbonate membrane having […] (Neuro Probe Inc., Gaithersburg, Md.) was coated overnight with 0.1% gelatin and then washed with phosphate buffered saline to remove an excess of the gelatin coating. Then, 28 μl growth factor-free EBM2 medium supplemented with 1% FBS was arranged in a lower chamber, and the membrane was arranged on the lower chamber. […] The Boyden chamber was incubated at 37° C. for 4 hours. After incubation, the membrane was removed and the cells on the upper side of the membrane were removed. The cells on the lower side of the membrane were stained with Diff-Quick (Sysmex, Hyogo Pref., JP). The cells in each of randomly selected 8 visual fields (×100) were counted."}, "Human endothelial cells": {"tested_on": "Human endothelial cells", "experiment": "Test Example 2: growth of endothelial cells", "format": "cell-based", "details": "1, 10 and 100 ng/ml; Test Example 2, present tense", "protocol": "Human endothelial cells are sensitized with the HVJ envelope vector and then cultured in the presence or absence of human F2 peptide added externally (1, 10 and 100 ng/ml), to determine the increase (%) of the number of cells. […] Separately, endothelial cells sensitized with the HVJ envelope vector (concentration: 10 μg/ml) are cultured and an increase in the number of cells is measured to determine percentage increase (%). […] Further, the endothelial cells sensitized with the HVJ envelope vector are cultured in the presence or absence of rabbit anti-human F peptide antibody, and then an increase in the number of cells is measured to determine percentage increase (%)."}, "microorganism": {"tested_on": "microorganism", "experiment": "Antimicrobial activity, minimum inhibitory concentration on microtiter plate", "format": "cell-based", "details": "Example 7, method only, MIC not given", "protocol": "The antimicrobial activity is evaluated according to US National Committee for Clinical Laboratory Standard (NCCL Documents M7-A3). That is, the minimum concentration of the peptide at which microbial growth is inhibited is determined on a microtiter plate. A microorganism is cultured for 16 hours and then the absorbance at A600 thereof measured. From correlation of predetermined turbidity with colony forming unit (CFU), the […] is diluted with a medium to attain a specified CFU. Each microorganism strain is added at about 5×10^5 CFU/ml (final concentration). 5 mM aqueous solution of each peptide and 1.6 mM solution using a medium are prepared and used in serial dilution. 50 μl peptide at each concentration is pipetted into each well of a microtiter plate into which 50 μl/well microbial suspension has been pipetted (the final concentration of the peptide is 3.1 μM to 800 μM). A well to which the peptide was not added is used as the negative control. […] The concentration shown as results is MIC (μM). According to this method, the antimicrobial activity of the F2 peptide is determined."}, "HAEC": {"tested_on": "HAEC", "experiment": "MTS assay of endothelial cell proliferation with added peptide", "format": "cell-based, human", "details": "for endothelial proliferation Increase [times]: MTS, Table 3", "protocol": "F2 peptide was synthesized and then contacted in a varying amount with HAEC, and the ability thereof to proliferate the cells was examined by MTS assay. The MTS assay is a modification of the MTT assay, and is a method of measuring living cells based on a reaction of reducing tetrazolium salt (MTS) by living cells in culture, into a colored product formazan. Specifically, this assay is carried out as follows: • HAEC was inoculated onto a 96-well plate at a density of 750 cells/well. • 2 μl/well of each sample was added to 100 μl/well endothelial cell medium (1% FBS, without EGF). 2 μl/well was added every day (until Day 6) (the medium was not exchanged). • 20 μl measurement solution (Cell Titer 96 AQueous One Solution Cell Proliferation Assay (Promega)) was added to each well and mixed with 100 μl of the endothelial cell medium, and the old medium was removed by suction. A mixed suspension of the measurement solution and the cells was put in a volume of 120 μl/well and then incubated for 1 to 5 hours in a CO2 incubator. • The absorbance at 490 nm was measured with a plate reader.\nThe sample group (8 wells each) is as follows: • NC: Only EBM medium (endothelial cell medium) containing 1% FBS. The other samples were cultured by adding various peptides to this medium containing serum. • VEGF-A: Recombinant VEGF-A (KURABO) was added at a final concentration of 10 ng/ml. • F2-1: F2 peptide was added at a final concentration of 1 ng/ml. • F2-10: F2 peptide was added at a final concentration of 10 ng/ml. • F2-100: F2 peptide was added at a final concentration of 100 ng/ml. • F2-1000: F2 peptide was added at a final concentration of 1000 ng/ml."}, "[4]": {"tested_on": "endothelial nitric oxide synthase (eNOS) mRNA", "experiment": "Growth factor mRNA expression level: eNOS", "format": "cell-based"}, "[5]": {"tested_on": "ERK (extracellular signal-related kinase)", "experiment": "Effect on ERK activity", "details": "data are not shown"}}, "note": "Entries after “also recorded” stand apart in the source; their conditions may differ.", "data": [{"sequence": "MLSLIFLHRLKSMRKRLDRKLRFWHRKNYP (listed as Homo sapiens) [F2 peptide]", "values": [{"measurement": "effect on mRNA level of FGF-2 (in words)", "setting": "[1]", "result": "did not have any effect"}, {"measurement": "FGF-2 mRNA Increased Amount [times]", "setting": "[1]; 24 hrs", "result": 5.7, "unit": "times"}, {"measurement": "FGF-2 mRNA Increased Amount [times]", "setting": "[1]; 48 hrs", "result": 6.0, "unit": "times"}, {"measurement": "FGF-2 mRNA Increased Amount [times]", "setting": "[1]; 72 hrs", "result": 9.4, "unit": "times"}, {"measurement": "effect on PI3K/Akt activity", "setting": "[2]", "result": "did not have any direct effect"}, {"measurement": "newly formed blood vessels containing intact erythrocytes in the plug", "setting": "C57BL/6 female mouse; FIG. 12", "result": "more newly formed blood vessels containing intact erythrocytes than in the mouse receiving a Matrigel containing the control peptide"}, {"measurement": "newly formed blood vessels by immune staining with anti-CD31 antibody", "setting": "C57BL/6 female mouse; FIG. 13", "result": "more newly formed blood vessels"}, {"measurement": "IGF-1 mRNA Increased Amount [times]", "setting": "[3]; 24 hrs", "result": 46.2, "unit": "times"}, {"measurement": "IGF-1 mRNA Increased Amount [times]", "setting": "[3]; 48 hrs", "result": 97.9, "unit": "times"}, {"measurement": "IGF-1 mRNA Increased Amount [times]", "setting": "[3]; 72 hrs", "result": 243.8, "unit": "times"}, {"measurement": "effect on mRNA level of IGF-1 (in words)", "setting": "[3]; over 72 hours, FIG. 16", "result": "up-regulated the mRNA level of insulin-like growth factor-1 (IGF-1) potently and specifically in a time-dependent manner"}, {"measurement": "migration % Increase", "setting": "HEAC endothelial cells; 10 ng/ml", "result": 88.5, "unit": "%"}, {"measurement": "migration % Increase", "setting": "HEAC endothelial cells; 100 ng/ml", "result": 102.5, "unit": "%"}, {"measurement": "migration % Increase", "setting": "HEAC endothelial cells; 1 μg/ml", "result": 129.8, "unit": "%"}, {"measurement": "cell migration activity (in words)", "setting": "HEAC endothelial cells; F2 0.01 to 1 μg/ml, control peptide 1 μg/ml, VEGF 50 ng/ml, FIG. 10", "result": "significantly increased in a concentration-dependent manner; also recorded: higher than that of VEGF (50 ng/ml)"}, {"measurement": "growth of endothelial cells with externally added peptide", "setting": "Human endothelial cells", "result": "growth of endothelial cells is promoted"}, {"measurement": "antimicrobial activity", "setting": "microorganism", "result": "has an antimicrobial activity"}, {"measurement": "endothelial proliferation Increase [times]", "setting": "HAEC; 100 ng/ml", "result": 1.23, "unit": "times"}, {"measurement": "endothelial proliferation Increase [times]", "setting": "HAEC; 1 μg/ml", "result": 1.475, "unit": "times"}, {"measurement": "cell proliferation ability (MTS assay, absorbance at 490 nm)", "setting": "HAEC; F2 peptide 1 to 1000 ng/ml added every day until Day 6, VEGF-A 10 ng/ml, FIG. 9", "result": "recognized in a dose-dependent manner, similar to VEGF protein; also recorded: stronger activity of enhancing proliferation of HEAC than VEGF"}, {"measurement": "effect on mRNA level of eNOS (in words)", "setting": "[4]", "result": "did not have any effect"}, {"measurement": "eNOS mRNA Increased Amount [times]", "setting": "[4]; 24 hrs", "result": 0.1, "unit": "times"}, {"measurement": "eNOS mRNA Increased Amount [times]", "setting": "[4]; 48 hrs", "result": 6.1, "unit": "times"}, {"measurement": "eNOS mRNA Increased Amount [times]", "setting": "[4]; 72 hrs", "result": 0.7, "unit": "times"}, {"measurement": "effect on ERK activity", "setting": "[5]", "result": "did not have any direct effect"}]}]}
